From ChEMBL document CHEMBL2007661, “Compounds: GSK PKIS; Assays: UNC Frye lab” (2012)
Several values for one entry are separate records, joined by “and”; a condition that tells them apart may be missing. Equal entries are not always repeated.

What was measured:
[1] = molecular target: T1, Tyrosine-protein kinase Mer (Homo sapiens) (UniProt Q12866); conditions: at 10 µM
T1 sequence (whole entry): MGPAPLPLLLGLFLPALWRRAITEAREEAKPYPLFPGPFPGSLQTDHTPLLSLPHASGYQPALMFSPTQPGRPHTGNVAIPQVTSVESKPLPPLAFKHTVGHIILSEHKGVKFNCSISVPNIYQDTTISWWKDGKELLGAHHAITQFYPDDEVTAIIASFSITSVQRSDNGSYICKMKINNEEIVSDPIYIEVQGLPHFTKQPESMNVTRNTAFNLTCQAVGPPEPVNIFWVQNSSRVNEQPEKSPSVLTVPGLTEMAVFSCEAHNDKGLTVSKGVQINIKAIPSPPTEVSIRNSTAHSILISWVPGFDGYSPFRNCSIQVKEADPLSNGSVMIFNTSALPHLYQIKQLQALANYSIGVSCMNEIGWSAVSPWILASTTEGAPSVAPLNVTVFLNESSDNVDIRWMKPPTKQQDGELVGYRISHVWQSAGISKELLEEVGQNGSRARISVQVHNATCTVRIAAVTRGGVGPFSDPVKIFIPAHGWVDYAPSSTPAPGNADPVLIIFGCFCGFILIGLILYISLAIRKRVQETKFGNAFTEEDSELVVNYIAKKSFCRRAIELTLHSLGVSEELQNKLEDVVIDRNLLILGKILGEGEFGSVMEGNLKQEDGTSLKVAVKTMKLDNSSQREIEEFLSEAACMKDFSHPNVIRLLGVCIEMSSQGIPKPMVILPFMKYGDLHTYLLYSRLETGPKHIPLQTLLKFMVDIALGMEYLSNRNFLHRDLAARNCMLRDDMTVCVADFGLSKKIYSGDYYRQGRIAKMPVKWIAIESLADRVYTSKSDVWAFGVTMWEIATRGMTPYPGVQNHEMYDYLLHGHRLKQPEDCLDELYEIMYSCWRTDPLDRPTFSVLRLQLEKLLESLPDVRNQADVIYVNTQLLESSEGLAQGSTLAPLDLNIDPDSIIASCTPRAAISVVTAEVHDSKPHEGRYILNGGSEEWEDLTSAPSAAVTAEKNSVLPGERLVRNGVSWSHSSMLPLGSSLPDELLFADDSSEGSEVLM

[2] = molecular target: T2, Inhibitor of nuclear factor kappa-B kinase subunit epsilon (Homo sapiens) (UniProt Q14164); conditions: at 1 µM
T2 sequence (whole entry): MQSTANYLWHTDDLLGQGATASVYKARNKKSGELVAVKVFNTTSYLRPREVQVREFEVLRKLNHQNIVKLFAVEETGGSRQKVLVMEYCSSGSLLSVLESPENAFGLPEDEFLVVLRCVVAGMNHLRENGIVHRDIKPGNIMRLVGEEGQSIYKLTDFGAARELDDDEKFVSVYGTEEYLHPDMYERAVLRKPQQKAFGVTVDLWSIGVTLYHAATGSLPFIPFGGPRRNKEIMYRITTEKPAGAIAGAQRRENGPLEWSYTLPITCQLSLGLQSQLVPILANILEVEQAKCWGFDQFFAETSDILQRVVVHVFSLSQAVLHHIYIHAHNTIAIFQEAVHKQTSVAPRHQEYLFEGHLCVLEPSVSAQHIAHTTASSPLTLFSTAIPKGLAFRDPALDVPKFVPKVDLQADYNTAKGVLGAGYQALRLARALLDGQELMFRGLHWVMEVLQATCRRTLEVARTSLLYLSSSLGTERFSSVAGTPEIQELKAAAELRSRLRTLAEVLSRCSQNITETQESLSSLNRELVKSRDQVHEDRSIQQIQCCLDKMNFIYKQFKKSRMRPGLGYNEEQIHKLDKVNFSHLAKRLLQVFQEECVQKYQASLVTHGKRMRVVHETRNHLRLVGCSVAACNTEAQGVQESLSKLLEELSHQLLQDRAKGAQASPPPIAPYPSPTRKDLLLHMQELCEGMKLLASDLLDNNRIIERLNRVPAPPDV

Structure (SMILES)	inhibition [1]	inhibition [2]
CC1=C(C(=O)Nc2ccc3[nH]nc(C)c3c2)C(c2ccc(C(F)(F)F)cc2)CC(=O)N1 (stereo not drawn)	44%	-1% and 0%
O=S(=O)(CCOCc1ccc(-c2ccc3ncnc(Nc4ccc(OCc5cccc(F)c5)c(Cl)c4)c3c2)o1)c1ccccc1	5%	-2% and -1%
O=C1NC(=O)C(c2cccc(Cl)c2)=C1Nc1ccc(Cl)c(C(=O)O)c1	27%	5%
CCS(=O)(=O)c1ccc(OC)c(Nc2ncc(-c3cccc(-c4ccccc4F)c3)o2)c1	79%	10% and 5%
COc1cc2ncn(-c3cc(O[C@@H](C)c4ccccc4Cl)c(C(N)=O)s3)c2cc1OC	69%	6% and 8%
CCN1CCC(C(=O)Nc2n[nH]c3nnc(-c4cccc(F)c4F)cc23)CC1	-7%	-1% and -3%
Cc1ccc2c(-c3ccnc(Nc4cccc(C(F)(F)F)c4)n3)c(-c3ccccc3)nn2n1	4%	1% and 3%
Cc1ccc(C(=O)NC2CCC2)cc1-c1ccc(C(=O)NCC2CC2)cc1	2%	-1% and -2%
Fc1ccc(-c2nc3n(c2-c2ccncc2)CCS3)cc1	73%	-1% and -2%
Nc1nccc(-c2c(-c3ccc(F)cc3)ncn2CCCN2CCOCC2)n1	4%	1% and 3%
CS(=O)(=O)CCNCc1ccc(-c2ccc3ncnc(Nc4ccc(OCc5cccc(C(F)(F)F)c5)cc4)c3c2)o1	-2%	1% and -1%
NS(=O)(=O)c1cccc(-c2ccc3c(NC(=O)C4CC4)n[nH]c3c2)c1	-7%	-1% and 0%
COc1ccc(-c2nn3ncccc3c2-c2ccnc(Nc3ccc(F)c(F)c3)n2)cc1	-4%	-4% and -3%
CCOc1ccc2c(-c3ccnc(Nc4cc(OC)cc(C(F)(F)F)c4)n3)cnn2n1	-5%	32% and 31%
N#Cc1c(NC(=O)c2ccc(F)cc2)sc2c1CCCC2	1%	-4% and -3%
COC(=O)c1cncc(/C=C/c2c(C)cc(O)cc2C)c1	-6%	0% and 1%
CCCN1CCC(Oc2cc(Nc3nc(Nc4cccc(F)c4C(N)=O)c4cc[nH]c4n3)c(OC)cc2Cl)CC1	-6%	0% and -2%
c1cnn2ncc(-c3ccnc(NCCCN4CCOCC4)n3)c2c1	81%	1% and 2%
COc1ccc(-c2coc3ncnc(N)c23)cc1	-3%	-4%
N#Cc1c(NC(=O)c2cccc3ccccc23)sc2c1CCCC2	78%	-2% and -3%

Structure (SMILES)	inhibition [1]	inhibition [2]
COc1cc2c(cc1Nc1nc(Nc3cccc(F)c3C(N)=O)c3cc[nH]c3n1)N(C(=O)CN1CCN(C(C)C)CC1)CC2	-7%	-1% and -2%
CCn1c(-c2nonc2N)nc2ccc(F)cc21	-4%	-1%
NC(=O)c1cccc(Nc2nccc(Nc3cccc(F)c3)n2)c1	50%	13% and 12%
CS(=O)(=O)CCNCc1ccc(-c2ccc3ncnc(Nc4ccc(OCc5ccccc5)c(Br)c4)c3c2)o1	14%	-2% and -1%
CCn1c(-c2nonc2N)nc2cncc(C(=O)N3CCNCC3)c21	0%	-2% and 0%
Nc1nccc(-c2c(-c3ccc(F)cc3)ncn2C2CCC(O)CC2)n1 (stereo not drawn)	29%	0% and 1%
COc1cc(Nc2ncc3c(C)nc(-c4cccc(Oc5ccccc5)c4)n3n2)cc(OC)c1OC	-6%	59%
CCc1cccc(CC)c1/C=C/c1cncc(C(=O)NC)c1	-7%	-2% and -3%
NC(=O)c1sc(-n2cnc3ccccc32)cc1OCc1ccccc1Br	45%	2% and -1%
FC(F)(F)c1ccc(-c2nn3ncccc3c2-c2ccnc(Nc3ccc4c(c3)OCCO4)n2)cc1	-6%	-2%
Nc1ncc(-c2cccc(S(N)(=O)=O)c2)c2scc(-c3ccc(F)c(Cl)c3)c12	3%	1% and 2%
NC(=O)Cc1ccccc1Oc1nccc(-c2c(-c3ccc(F)cc3)ncn2C2CCNCC2)n1	71%	0% and -1%
CN1CCN(C(=O)c2ccc(NC(=O)Nc3ccc(N(C)c4ccnc(Nc5ccc(CS(C)(=O)=O)cc5)n4)cc3)cc2)CC1	0%	26% and 22%
[O-][S+]1CCN(Cc2ccc(-c3ccc4ncnc(Nc5ccc(OCc6ccccc6)c(Cl)c5)c4c3)o2)CC1	-5%	-3%
COc1ccc2ncn(-c3cc(O[C@H](C)c4ccccc4C(F)(F)F)c(C(N)=O)s3)c2c1	3%	-3% and -4%
COc1cc2ncnc(Nc3ccc(C)c(O)c3)c2cc1OC	-10%	-1% and -2%
CNC(=O)c1cccc(C#Cc2cncnc2Nc2ccc(OCc3cccc(F)c3)c(Cl)c2)c1	61%	7% and 1%
COc1cc(Nc2nccc(-c3cnn4ncccc34)n2)cc(OC)c1	5%	38%
COc1ccc(-c2ccncc2)cc1C(N)=O	3%	1% and 3%
CNC(=O)c1sc(-n2cnc3cc(OC)c(OC)cc32)cc1OCc1ccccc1C(F)(F)F	4%	-3% and -2%

Structure (SMILES)	inhibition [1]	inhibition [2]
Fc1cccc(COc2ccc(Nc3ncnc4sc(-c5cccs5)cc34)cc2Cl)c1	-10%	-2%
COC(=O)Nc1nc2ccc(Sc3ccc(NC(=O)Nc4cc(C(F)(F)F)ccc4F)cc3)cc2[nH]1	21%	-2% and -1%
Nc1nonc1-c1nc2cnccc2n1C1CCCCC1	1%	25%
Nc1nc(-c2cccc(Cl)c2)c(-c2ccc3ncccc3n2)s1	1%	1%
NS(=O)(=O)c1cccc(Nc2cc(-c3ccc(F)cc3)n[nH]2)c1	0%	5%
COc1cc2c(cc1Nc1nc(Nc3ccsc3C(N)=O)c3cc[nH]c3n1)N(C(=O)CN(C)C)CCC2(C)C	68%	39% and 44%
O=C(Nc1n[nH]c2cc(-c3cc(F)ccc3F)ccc12)C1CC1	6%	-3%
Cc1cc(O)cc(C)c1/C=C/c1cncc(C(=O)OC(C)(C)C)c1	-2%	-2% and 0%
COc1ccc2ncn(-c3cc(O[C@H](C)c4ccccc4Cl)c(C(N)=O)s3)c2c1	86%	-2%
CN1CCC(n2cnc(-c3ccc(F)cc3)c2-c2ccnc(NCCO)n2)CC1	-2%	-3%
FC(F)(F)c1cccc(Nc2nccc(-c3cnn4nc(-c5ccccc5)ccc34)n2)c1	-2%	7% and 5%
CS(=O)(=O)CCNCc1ccc(-c2ccc3ncnc(Nc4ccc(OCc5cccc(F)c5)c(C(F)(F)F)c4)c3c2)o1	50%	1% and 4%
NS(=O)(=O)c1ccc(-c2cc3ccncc3cc2OCc2ccccc2)cc1	-3%	0% and 1%
COc1ccc(-c2ccc3c(NC(=O)C4CC4)n[nH]c3n2)cc1	-5%	-1% and 0%
N#Cc1cccc(Nc2ncc(-c3ccccc3)o2)c1	80%	1% and -3%
Clc1ccc(CNc2nccc(-c3cnn4ncccc34)n2)cc1	-4%	0%
COc1cc(Nc2nccc(Nc3ccc4c(C)n[nH]c4c3)n2)cc(OC)c1OC	-5%	22% and 23%
COc1ccccc1-c1cc(/C=C2\C(=O)Nc3ncc(Br)cc32)cc(Br)c1O	-2%	10%
COc1cccc(/C=N/Nc2ncnc3c2cnn3-c2cccc(OC)c2)c1	-6%	-1% and 1%
